Assay results taken from USRE38257E1, “Piperdine derivatives and hypotensives containing the same” (Ajinomoto Co., Inc., priority 1988, dated 2003).

Test system: male spontaneously hypertensive rats
Test: Decrease in systolic blood pressure in spontaneously hypertensive rats after intravenous bolus injection, indirect (tail-cuff) method
Type: in vivo, rat
Conditions: for Decrease in systolic blood pressure (mmHg) time after administration (hour) 0.5: 0.5 hour after administration; for Decrease in systolic blood pressure (mmHg) time after administration (hour) 4: 4 hours after administration
Description: As test animals, four male spontaneously hypertensive rats (weight 400 to 440 g) that were sufficiently adapted for feeding and in which hypertension was confirmed were used.
Physiological saline aqueous solution containing 2.5% Nicolle and 2.5% ethanol of sample was intravenously administered by bolus injection at a dose of 1 ml per 1 kg of body weight. Systolic blood pressure after administration was measured by the indirect (tail-cuff) method.

[1] = dose 10 mg/kg i.v. bolus, hydrochloride, 10 mg/kg

Row | Molecule | Decrease in systolic blood pressure (mmHg) time after administration (hour) 0.5 (dose 10 mg/kg i.v. bolus) [mmHg] | Decrease in systolic blood pressure (mmHg) time after administration (hour) 4 (dose 10 mg/kg i.v. bolus) [mmHg] | also measured
1 | COc1ccc(C(=O)CCCCN2CCC(=C3c4ccccc4C=Cc4ccccc43)CC2)cc1OC.Cl [Example 169, 5-(4-(5H-Dibenzo[a,d]cyclohepten-5-ylidene)-1-piperidinyl)-3′,4′-dimethoxyvalerophenone hydrochloride] | −130 | −4 | –
2 | COc1ccc(C(=O)NCCN2CCCCC2=C2c3ccccc3C=Cc3ccccc32)c(OC)c1.Cl [Example 292, N-(2-(5H-Dibenzo[a,d]cyclohepten-5-ylidene)-1-piperidinyl)ethyl-2,4-dimethoxybenzamide hydrochloride] | – | – | Decrease in systolic blood pressure (mmHg) time after administration (hour) 0.5 (dose 3 mg/kg i.v. bolus): −31 mmHg; Decrease in systolic blood pressure (mmHg) time after administration (hour) 4 (dose 3 mg/kg i.v. bolus): 3 mmHg
3 | Cl.Cl.Nc1cccc(CCCN2CCC(=C3c4ccccc4C=Cc4ccccc43)CC2)c1 [Example 315, 1-(3-Aminophenyl)-3-(4-(5H-dibenzo[a,d]cyclohepten-5-ylidene)-1-piperidinyl)propane dihydrochloride] | −43 | −3 | –
4 | CCCCCCCCCC(=O)N1CCC(=C2c3ccccc3C=Cc3ccccc32)CC1 [Example 164, 1-Decanolyl-4-(5H-dibenzo[a,d]cyclohepten-5-ylidene)piperidine] | −91 | −22 | –
5 | CC(=O)Nc1cccc(CCCN2CCC(=C3c4ccccc4C=Cc4ccccc43)CC2)c1.Cl [Example 316, 1-(3-Acetylaminophenyl)-3-(4-(5H-dibenzo[a,d]cyclohepten-5-ylidene)-1-piperidinyl)propane hydrochloride] | – | – | Decrease in systolic blood pressure (mmHg) time after administration (hour) 0.5 (dose 1 mg/kg i.v. bolus): −100 mmHg; Decrease in systolic blood pressure (mmHg) time after administration (hour) 4 (dose 1 mg/kg i.v. bolus): 8 mmHg
6 | COc1ccc(CN2CCC(=C3c4ccccc4C=Cc4ccccc43)CC2)cc1OC.Cl [Example 174, 4-(5H-Dibenzo[a,d]cyclohepten-5-ylidene)-1-(3,4-dimethoxybenzyl)piperidine hydrochloride] | −8 | −16 | –
7 | Cl.c1ccc2c(c1)Sc1ccccc1C2=C1CCN(CCCCC2CCCCC2)CC1 [Example 182] | −11 | −6 | –
8 | Cl.N#CCCCN1CCC(=C2c3ccccc3C=Cc3ccccc32)CC1 [Example 166, 1-Cyano-4-[4-(5H-dibenzo[a,d]cyclohepten-5-ylidene)-1-piperidinyl)propane hydrochloride] | – | – | Decrease in systolic blood pressure (mmHg) time after administration (hour) 0.5 [1]: −45 mmHg; Decrease in systolic blood pressure (mmHg) time after administration (hour) 4 [1]: 6 mmHg
9 | Cl.O=[N+]([O-])c1ccccc1CCCN1CCC(=C2c3ccccc3C=Cc3ccccc32)CC1 [Example 250, 3-(4-(5H-Dibenzo[a,d]cyclohepten-5-ylidene)-1-piperidinyl)-1-(2-nitrophenyl)propane hydrochloride] | −136 | −30 | –
10 | Cl.Clc1ccc(CN2CCC(=C3c4ccccc4C=Cc4ccccc43)CC2)cc1 [Example 130, 1-(4-Chlorobenzyl)-4-(5H-Dibenzo[a,d]cyclohepten-5-ylidene)piperidine hydrochloride] | −42 | 9 | –
11 | COc1ccc(CN2CCC(=C3c4ccccc4C=Cc4ccccc43)CC2)cc1OC [Example 175, 4-(5H-Dibenzo[a,d]cyclohepten-5-ylidene)-1-(3,4-dimethoxybenzyl)piperidine] | −87 | −1 | –
12 | Cl.Cl.Nc1ccc(CN2CCC(=C3c4ccccc4C=Cc4ccccc43)CC2)cc1 [Example 140, 1-(4-Aminobenzy)-4-(5H-Dibenzo[a,d]cyclohepten-5-ylidene)piperidine dihydrochloride] | – | – | Decrease in systolic blood pressure (mmHg) time after administration (hour) 0.5 (dose 3 mg/kg i.v. bolus): −113 mmHg; Decrease in systolic blood pressure (mmHg) time after administration (hour) 4 (dose 3 mg/kg i.v. bolus): −101 mmHg
13 | CCOC(=O)C(CCC1CCCCC1)CN1CCC(=C2c3ccccc3C=Cc3ccccc32)CC1.Cl (centres unmarked) [Example 262] | −16 | −3 | –
14 | Cl.OC1CCCC(CCCCN2CCC(=C3c4ccccc4C=Cc4ccccc43)CC2)C1 (centres unmarked) [Example 300, 1-(1-(3-Hydroxyoxy)cyclohexyl)-4-(4-(5H-dibenzo[a,d]cyclohepten-5-ylidene)-1-piperidinyl)butane hydrochloride] | −97 | −22 | –
15 | CC(=O)Nc1ccc(CCCCN2CCC(=C3c4ccccc4C=Cc4ccccc43)CC2)cc1.Cl.Cl [Example 197] | −51 | −26 | –
16 | 4-(5H-Dibenzo[a,d]cyclohepten-5-ylidene)-1-(4-N-imidazolylmethyl)cinnamyl)piperidine dihydroxybutane hydrochloride [Example 210] | – | – | Decrease in systolic blood pressure (mmHg) time after administration (hour) 0.5 (dose 1 mg/kg i.v. bolus): −78 mmHg; Decrease in systolic blood pressure (mmHg) time after administration (hour) 4 (dose 1 mg/kg i.v. bolus): −69 mmHg
17 | COc1cccc(C=CCN2CCC(=C3c4ccccc4C=Cc4ccccc43)CC2)c1[N+](=O)[O-].Cl [Example 377] | – | – | Decrease in systolic blood pressure (mmHg) time after administration (hour) 0.5 (dose 1 mg/kg i.v. bolus): −151 mmHg; Decrease in systolic blood pressure (mmHg) time after administration (hour) 4 (dose 1 mg/kg i.v. bolus): −73 mmHg
18 | COc1ccc(OC)c(C=CCN2CCC(=C3c4ccccc4C=Cc4ccccc43)CC2)c1.Cl [Example 343, 4-(5H-Dibenzo[a,d]cyclohepten-5-ylidene)-1-(2,5-dimethoxycinnamyl)piperidine hydrochloride] | – | – | Decrease in systolic blood pressure (mmHg) time after administration (hour) 0.5 (dose 3 mg/kg i.v. bolus): −83 mmHg; Decrease in systolic blood pressure (mmHg) time after administration (hour) 4 (dose 3 mg/kg i.v. bolus): −45 mmHg
19 | C1=Cc2ccccc2C(=C2CCN(CCCCCc3ccccc3)CC2)c2ccccc21.Cl [Example 16, 5-(4-(5H-Dibenzo[a,d]cyclohepten-5-ylidene)-1-piperidinyl)-1-phenylpentane hydrochloride] | −114 | −30 | –
20 | C1=Cc2ccccc2C(=C2CCN(CCCCc3ccccc3)CC2)c2ccccc21.Cl [Example 15, 4-(4-(5H-Dibenzo[a,d]cyclohepten-5-ylidene)-1-piperidinyl)-1-phenylbutane hydrochloride] | −130 | −136 | –
21 | C1=Cc2ccccc2C(=C2CCN(Cc3ccccc3)CC2)c2ccccc21.Cl [Example 12, 1-Benzyl-4-(5H-dibenzo[a,d]cyclohepten-5-ylidene)piperidine hydrochloride] | −27 | 1 | –
22 | Cl.Cl.Nc1ccc(CCCN2CCC(=C3c4ccccc4C=Cc4ccccc43)CC2)cc1 [Example 248, 1-(4-Aminophenyl)-3-(4-(5H-Dibenzo[a,d]cyclohepten-5-ylidene)-1-piperidinyl)propane dihydrochloride] | −101 | −92 | –
